Reference: patent US8835392B2, “Mimetic peptides and the use thereof in the form of 20S, 26S and immunoproteasome inhibitors” (Technische Universität, priority 2005, dated 2014)
Entries after “also recorded” stand apart in the source; their conditions may differ. Where a SMILES comes first, the peptide text is derived from it. [ ]: non-standard residue; d: D form. The star is where a group is joined. Leu(ol) = CC(C)C[C@H](N)CO; Cbz = O=C(OCc1ccccc1)*; Boc = CC(C)(C)OC(=O)*; OBn = c1ccc(CO*)cc1; OtBu = CC(C)(C)O*; CH2Cl = ClC*

Columns and labels:
[1] = biological target: T1, 20S proteasome β1 caspase-like activity (LLE-MCA) (Homo sapiens, UniProt P28072+Q99436); assay: Protease assay, caspase-like activity of isolated 20S proteasomes; assay type: biochemical; settings: isolated 20S proteasome; LLE-MCA 50 μM; 15 min pre-incubation; read-out: IC50 β1 Caspase-like (E)
T1 construct: Proteasomes were isolated from red blood cells; from tissue; host or cells: red blood cells
Procedure: (§1) Proteasomes were isolated from red blood cells. Cells were lysed with DTT (1 mM), and the stroma-free supernatant was loaded on DEAE-sepharose (Toyopearls). Proteasome was eluted with an NaCl-gradient in TEAD (20 mM TrisCl pH 7.4, 1 mM EDTA, 1 mM azide, 1 mM DTT) of 100 to 300 mM NaCl. Proteasome was concentrated using ammonium sulfate-precipitation (between 40 and 70% saturation) and was separated in a 10-40% sucrose-gradient through centrifugation at 40.000 rpm for 16 hours (SW40; L7, Beckman & Coulter). Finally, the proteasomes were purified on a MonoQ-column and eluted with an NaCl-gradient at about 280 mM NaCl. The fractions containing purified proteasome were dialysed against 50 mM NaCl in TEAD and stored on ice. The purity was determined using SDS-PAGE.
(§2) Suc-LLVY-AMC, Z-VGR-AMC and LLE-AMC (BACHEM, Calbiochem) was used, in order to determine the chymotrypsin-like, trypsin-like or caspase-like (post-acidic)-activities of the proteasome. Substrate was incubated with proteasome at 37° C. in assay-buffer (20 mM Tris/Cl, pH 7.2, 1 mM EDTA, 1 mM DTT) for one hour. 100 ng proteasome was pre-incubated with 0.01-10 μM of the inhibitor for […]. The reaction was started by the addition of substrate (50 μM). The AMC as released was detected using fluorescence emission at 460 nm (excitation at 390 nm) using a TECAN-fluorimeter. The activity was calculated in fluorescence-units. The inhibition is depicted by IC50-values.
(§3) The effects thereof were compared with the one of the commonly used proteasomal inhibitor 3 (MG132). The chymotrypsin-like (Suc-LLVY-AMC), the trypsin-like (Bz-VGR-AMC), and the caspase-like (Z-LLE-AMC)-activities of 20S proteasomes were determined following incubation for one hour at 37° C.
(§4) The IC50-values form the inhibition of the proteasome were calculated at increasing concentrations of the inhibitor. The samples were pre-incubated for 15 min in ice. The assay was started through the addition of 50 μM of one of the following fluorogenic peptide substrates:
(§5) The release of MCA was determined at 460 nm emission (excitation 390 nm). The IC50-values as calculated for MG132 served as controls.

[2] = biological target: T2, 20S proteasome β5 chymotrypsin-like activity (Suc-LLVY-AMC) (Homo sapiens, UniProt P20618+P28074); assay: Protease assay, chymotrypsin-like activity of isolated 20S proteasomes (LLVY substrate); assay type: biochemical; settings: isolated 20S proteasome; LLVY-MCA 50 μM; 15 min pre-incubation; read-out: IC50 β5 Chymotrypsin-like (Y)
T2 construct: Proteasomes were isolated from red blood cells; from tissue; host or cells: red blood cells
Procedure: as §1, §2
The chymotrypsin-like (Suc-LLVY-AMC), the trypsin-like (Bz-VGR-AMC), and the caspase-like (Z-LLE-AMC)-activities of 20S proteasomes were determined following incubation for one hour at 37° C.
as §4, §5

20S proteasome = system: T3, 20S proteasome; assay: Inhibition of the different proteasomal activities, summary statements; assay type: biochemical; settings: isolated proteasomes, specific substrates
T3 construct: Proteasomes were isolated from red blood cells; from tissue; host or cells: red blood cells
Procedure: The specific inhibition of a single catalytic site is of specific interest for the development of drugs. Thus, the inhibition of the different proteasomal activities of the proteasome was analysed (see also example 6). The different cleavage-preferences of the proteasome were determined by the specific substrate for the hydrophobic (chymotrypsin-like), the trypsine-like and the caspase-like activities of isolated proteasomes.
as §2, §3

[3] = biological target: T4, 20S proteasome β2 trypsin-like activity (VGR-MCA) (Homo sapiens, UniProt P49720+Q99436); assay: Protease assay, trypsin-like activity of isolated 20S proteasomes; assay type: biochemical; settings: isolated 20S proteasome; VGR-MCA 50 μM; 15 min pre-incubation; read-out: IC50 β2 Trypsin-like (R)
T4 construct: Proteasomes were isolated from red blood cells; from tissue; host or cells: red blood cells
Procedure: as §1, §2, §3, §4, §5

[4] = biological target: T5, proteasomal activity in HeLa-cells (Homo sapiens, UniProt P20618+P28074); assay: Intracellular inhibition of proteasomes in cultivated HeLa-cells; assay type: cell-based; settings: for reduction of the specific proteasomal activity in cells: 1 μM; for membrane-permeation / stability during the incubation periods: cultivated cells
T5 construct: endogenous in cells; host or cells: HeLa
Procedure: (§6) A, HeLa-cells were cultivated were 24 hours in the presence of the inhibitor. The protein concentration was determined in accordance with the cellular lysis according to Bradford in order to normalise the proteasomal activities to the different amounts of cells. Subsequently Complete (Roche) was added to all lysates, and the proteasomal activity was determined through the hydrolysis of Suc-LLVY-AMC. B, HeLa-cells was incubated with 1 μM of compound 15 for 2, 4, 6 and 24 hours. Cells were lysed, and proteins were separated through SDS-PAGE on a 10% gel, blotted to a PVDF-membrane. The accumulation of the poly-ubiquitinylated proteins was detected in a Western blot by an anti-ubiquitine-antibody (DAKO). C, HeLa-Cells were treated with increasing concentrations of the inhibitor 15, 25, 26, 27, and 28 for 24 hours (lane 1: without inhibitor; lane 2: 10 nM; lane 3: 100 nM and lane 4: 1 μM of the given inhibitor). Cells were lysed, proteins were separated on 15% gels, and the accumulation of the poly-ubiquitinylated proteins was controlled through Western blot.
HeLa-Cells were cultivated in RPMI, supplemented with 10% FCS and penicillin/streptomycin, at 5% CO2. Inhibitors were administered from 100×-stock solutions (in DMSO) at the final concentrations as indicated, and incubated with the cells for at least 20 hours.
Cultivated cells (HeLa) were harvested lysed and with 0.1% NP40 in TEAD in the presence of the commercially available protease-inhibitor-mixture Complete (Roche). The proteasomal activity was measured in 10 μl of the lysate using Suc-LLVY-AMC as a substrate. The protein content was quantified by means of Bradford (Protein assay; BioRad).
An application on cell cultures or animals requires that the concentrations of the inhibitors are chose as low as required. The specific proteasomal activity was reduced to a value of below 50% in cells that were treated with 1 μM of the compounds 15, 22, 25, 26, or 28, respectively (FIG. 6A).

[5] = Hydrolytic stability of dichlorovinylethers; assay type: physicochemical; settings: for stability at pH 11: converted into α-chloroacetates
From the text: The non-selective dichlorovinylester 1 (see FIG. 1), which readily reacts with all possible nucleophiles, such as, for example, cysteine, serine and finally also threonine, served as a further lead-structure for the syntheses of compounds according to the invention. In addition, the aim was pursued to reduce the inherent over-activation of this compound. The “removal” of the acyl group of 1 could reduce the non-specific hydrolysis through ubiquitary nucleophiles, and results in quite stable dichlorovinylethers (28). […] This dual reactivity which is provided in a cascade-like reaction, corresponds to the specific requirements for an N-terminal threonine-protease-inhibitor.

[6] = system: poly-ubiquitinylated proteins in HeLa-cells; assay: Accumulation of poly-ubiquitinylated proteins, Western blot; assay type: cell-based; settings: 1 μM for compound 15
Procedure: as §6
A specific inhibition of the proteasome lead to an accumulation of poly-ubiquitinylated proteins. Indeed, the amount of poly-ubiquitinylated proteins increased during the incubation with the inhibitors. First effects were observed after 2 hours, for compound 15 (FIG. 6B) as well as for compounds 20, 22, 25 and 28 (data not shown).
50 μg of whole-cell-lysate were separated by SDS-PAGE, and blottet onto a PVDF-membrane (Millipore). The blots were blocked by means of a 5% milk-suspension. The poly-ubiquitinylated proteins were detected by anti-ubiquitin-antibody (DAKO), and anti-rabbit, POD-labelled, as a secondary antibody (DIANOVA), and visualized through ECL.

[7] = biological target: T6, 20S proteasome β5 chymotrypsin-like activity (GLL-MCA) (Homo sapiens, UniProt P20618+P28074); assay: Protease assay, chymotrypsin-like activity of isolated 20S proteasomes (GLL substrate); assay type: biochemical; settings: isolated 20S proteasome; GLL-MCA 50 μM; 15 min pre-incubation; read-out: IC50 β5 Chym.-like (L)
T6 construct: Proteasomes were isolated from red blood cells; from tissue; host or cells: red blood cells
Procedure: as §1, §2, §4, §5

HeLa-cells = assay: Viability of HeLa-cells, crystal violet-staining; assay type: cell-based; settings: 10 μM, 20 hours
Procedure: A, The viability of HeLa-Cells that were incubated with the compounds 7-28 and MG132 (1 μM), was determined using crystal-violet-staining after 20 h.
B, The viability of HeLa-Cells is dependent from the concentration of the inhibitor. HeLa-cells were cultivated for 20 hours in the presence of increasing concentrations (10 to 10000 nM) of the compounds (7, 13, 15, 18, 20-22, 24-28) and MG 132. The survival of the cells was determined using crystal-violet-staining.
The viability of Hela-Cells in the presence of different compounds was tested in […]. The viability of HeLa-cells was tested through crystal violet-staining following the incubation with the inhibitors. The cells were washed once with PBS, fixed with 1% glutardialdehyde for 30 min, and washed again. Finally, the fixed cells were stained with 0.1% crystal violet in PBS for 30 min, and subsequently carefully washed with water, in order to remove unbound dye. The residual dye was eluted with 0.1% Triton X-100 in PBS, and determined at 550 nm.

| IC50 [1] [µM] | IC50 [2] [µM] | SMILES | which proteasomal activities are inhibited (site selectivity) (20S proteasome) | other results |
| --- | --- | --- | --- | --- |
|  | > 10 | CC(=O)N[C@@H](CC(C)C)C(=O)N[C@@H](CC(=O)OCc1ccccc1)C(=O)N[C@H](CO)CC(C)C [Compound 10] (Ac-Leu-Asp(OBn)-[Leu(ol)]) |  |  |
|  | > 10 | CC(C)C[C@@H](CO)NC(=O)[C@H](CC(=O)OCc1ccccc1)NC(=O)[C@H](CC(C)C)NC(=O)OCc1ccccc1 [Compound 11] (Cbz-Leu-Asp(OBn)-[Leu(ol)]) |  |  |
|  | > 10 | CC(C)C[C@@H](CO)NC(=O)[C@H](CC(=O)OCc1ccccc1)NC(=O)[C@H](CC(C)C)NC(=O)OC(C)(C)C [Compound 12] (Boc-Leu-Asp(OBn)-[Leu(ol)]) |  |  |
| > 10 | 7.26 | CC(C)C[C@@H](C=O)NC(=O)[C@H](CC(=O)O)NC(=O)[C@H](CC(C)C)NC(=O)OCc1ccccc1 [Compound 16] (Cbz-Leu-Asp-Leu-aldehyde) | exclusive reduction of the chymotryptic activity | IC50 [3]: > 10 µM |
|  | 2.2 | CC(C)CC(NC(=O)C(CC(C)C)NC(=O)C(CC(C)C)NC(=O)OCc1ccccc1)C(=O)CCl (stereo not drawn) [Compound 22] (Cbz-Leu-Leu-Leu-CH2Cl; configuration not given here) | exclusive reduction of the chymotryptic activity | reduction of the proteolytic activity in cells at 10 nM ([4]; HeLa cells, 10 nM): reduction of the proteolytic activity; membrane-permeation [4]: membrane-permeation; stability during the incubation periods [4]: sufficient stability; first effects on accumulation of poly-ubiquitinylated proteins observed after [6]: 2 h |

Second part, the compound before the results:

| SMILES | IC50 [1] [µM] | IC50 [2] [µM] | which proteasomal activities are inhibited (site selectivity) (20S proteasome) | other results |
| --- | --- | --- | --- | --- |
| CC(C)C[C@@H](CO)NC(=O)[C@H](CC(=O)OC(C)(C)C)NC(=O)[C@H](CC(C)C)NC(=O)OCc1ccccc1 [Compound 8] (Cbz-Leu-Asp(OtBu)-[Leu(ol)]) | > 10 | > 10 | exclusive inhibition of the trypsin-like activity; also recorded: specifically reduced the trypsine-like activity | IC50 [3]: 5.48 µM |
| CC(=O)N[C@@H](CC(C)C)C(=O)N[C@@H](CC(=O)OC(C)(C)C)C(=O)N[C@H](CO)CC(C)C [Compound 9] (Ac-Leu-Asp(OtBu)-[Leu(ol)]) |  | > 10 |  |  |
| CC(C)C[C@@H](C=O)NC(=O)[C@H](CC(=O)OCc1ccccc1)NC(=O)[C@H](CC(C)C)NC(=O)OCc1ccccc1 [Compound 18] (Cbz-Leu-Asp(OBn)-Leu-aldehyde) | 3.12 | 1.73 | inhibited the chymotryptic and the caspase-like sites | reduction of the specific proteasomal activity in cells ([4]; HeLa cells): very weak inhibition |
| CC(C)C[C@H](NC(=O)OCc1ccccc1)C(=O)N[C@@H](CC(C)C)C(=O)N[C@H](COC(Cl)=CCl)c1ccccc1 [Compound 19] |  |  |  | stability in acidic environment [5]: tolerate an acidic environment; stability at pH 11 [5]: hydrolysed readily |
| CC(C)C[C@@H](COC(Cl)=CCl)NC(=O)[C@H](CC(C)C)NC(=O)[C@H](CC(C)C)NC(=O)OCc1ccccc1 [Compound 20] | > 10 | > 10 |  | IC50 [3]: > 10 µM; first effects on accumulation of poly-ubiquitinylated proteins observed after [6]: 2 h; stability in acidic environment [5]: tolerate an acidic environment; stability at pH 11 [5]: hydrolysed readily |
| CC(C)C[C@H](NC(=O)OCc1ccccc1)C(=O)N[C@@H](CC(C)C)C(=O)N[C@@H](CC(C)C)C(O)C#Cc1ccccc1 (some centres unmarked) [Compound 21] |  | 1.3 | exclusive reduction of the chymotryptic activity | IC50 [7]: > 10 µM; reduction of the specific proteasomal activity in cells ([4]; HeLa cells): very weak inhibition |
| CC(C)C[C@H](NC(=O)OCc1ccccc1)C(=O)N[C@@H](CC(C)C)C(=O)N[C@@H](CC(C)C)C(O)C(=O)Nc1ccccc1 (some centres unmarked) [Compound 25] | 4.04 | 0.981 | inhibited the chymotryptic and the caspase-like sites | membrane-permeation [4]: membrane-permeation; stability during the incubation periods [4]: sufficient stability; first effects on accumulation of poly-ubiquitinylated proteins observed after [6]: 2 h |
| CC(C)C[C@H](NC(=O)OCc1ccccc1)C(=O)N[C@@H](CC(C)C)C(=O)N[C@@H](CC(C)C)C(=O)C(=O)NCc1cccnc1 [Compound 27] | 7.97 |  | inhibited the chymotryptic and the caspase-like sites | rate of survival of HeLa-cells (HeLa-cells): markedly reduced; reduction of the specific proteasomal activity in cells ([4]; HeLa cells): markedly reduction |
